Like-named read-outs stand apart in the source and are kept apart here.
Legend:
[1] = target: T1, M4 muscarinic receptor (Homo sapiens, UniProt P08173); experiment: Functional mobilization of intracellular calcium (FLIPR) in M4-CHO cells; format: cell-based; details: for M4 Activity: modulating M4 receptor
T1 construct: expressed in transfected cells; host or cells: CHO (M4-CHO)
T1 sequence (P08173 1-479): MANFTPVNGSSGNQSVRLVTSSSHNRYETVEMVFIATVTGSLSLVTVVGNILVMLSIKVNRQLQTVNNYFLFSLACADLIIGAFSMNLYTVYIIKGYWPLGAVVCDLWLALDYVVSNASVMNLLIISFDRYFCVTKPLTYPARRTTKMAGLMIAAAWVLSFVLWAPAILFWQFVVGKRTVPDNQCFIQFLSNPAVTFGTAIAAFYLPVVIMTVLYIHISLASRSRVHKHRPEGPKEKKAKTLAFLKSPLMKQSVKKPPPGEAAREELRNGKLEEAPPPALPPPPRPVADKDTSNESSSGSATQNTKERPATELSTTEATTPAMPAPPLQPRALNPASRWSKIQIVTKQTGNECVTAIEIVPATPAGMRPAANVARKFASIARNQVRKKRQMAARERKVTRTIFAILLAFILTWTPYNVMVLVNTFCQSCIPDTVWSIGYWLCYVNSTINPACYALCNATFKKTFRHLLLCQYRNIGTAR
In short: (§1)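 Measured via Fluo-3 fluorescence on a FLIPR, CHO cells with either muscarinic subtype received compound in 0.5% DMSO. Antagonism was assessed after 15 min pre-incubation followed by carbachol at each subtype's EC80; agonism from compound addition alone.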

[2] = target: T2, M1 muscarinic receptor (Homo sapiens, UniProt P11229); experiment: Functional mobilization of intracellular calcium (FLIPR) in M1-CHO cells; format: cell-based; details: for M1 Activity: modulating M1 receptor
T2 construct: expressed in transfected cells; host or cells: CHO (M1-CHO)
T2 sequence (P11229 1-460): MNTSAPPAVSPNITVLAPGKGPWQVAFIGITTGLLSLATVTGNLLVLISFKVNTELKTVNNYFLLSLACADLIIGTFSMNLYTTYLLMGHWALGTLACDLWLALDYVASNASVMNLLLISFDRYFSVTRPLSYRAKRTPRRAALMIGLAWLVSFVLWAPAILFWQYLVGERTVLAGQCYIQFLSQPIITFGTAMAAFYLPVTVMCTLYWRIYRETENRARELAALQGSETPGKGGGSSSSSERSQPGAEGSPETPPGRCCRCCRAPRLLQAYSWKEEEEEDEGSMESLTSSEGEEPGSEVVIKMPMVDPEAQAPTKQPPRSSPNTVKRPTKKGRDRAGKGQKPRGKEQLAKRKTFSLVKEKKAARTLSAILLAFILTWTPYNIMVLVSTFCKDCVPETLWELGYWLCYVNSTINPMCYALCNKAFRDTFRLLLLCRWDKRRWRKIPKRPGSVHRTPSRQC
In short: as §1

[3] = M4-CHO cells, calcium mobilization (FLIPR)
[4] = M4-CHO cells, calcium mobilization (FLIPR), read-out: M4 Efficacy
[5] = M1-CHO cells, calcium mobilization (FLIPR)
[6] = M1-CHO cells, calcium mobilization (FLIPR), read-out: M1 Efficacy
[7] = Table 4, 100% efficacy is the maximum response obtained with the Carbachol control

SMILES | EC50 [1, 3] [µM] | Emax [1, 4] [%] | EC50 [2, 5] [µM] | Emax [2, 6] [%] | M4 Efficacy [1, 3] | M1 Efficacy [2, 5] | Emax [1, 7] [%] | M4 Activity ([1]; Table 4) | Emax [2, 7] [%] | M1 Activity ([2]; Table 4)
COCCOC(=O)N1CCC(CN2CCC3(CC2)CN(C(C)=O)c2ccc(C)cc23)CC1 [compound 419] | > 1 | < 65 | > 1 | < 65 | – | – | – | – | – | –
c1ccc2c(c1)NCC21CCN(C2CC3CCC(C3)C2)CC1 (centres unmarked) [compound 420] | > 1 | < 65 | 0.1 to 1 | < 65 | – | – | – | – | – | –
CC(=O)NC1CC2(CCN(C[C@@H]3C[C@H]4C=C[C@H]3C4)CC2)c2ccccc21 (some centres unmarked) [compound 421] | > 1 | – | > 1 | – | x (efficacy was calculated to be less than 65%) | x (efficacy was calculated to be less than 65%) | – | – | – | –
COCCOC(=O)N1CC2(CCN(C3CC4CCC(C3)N4C(=O)OC(C)C)CC2)c2cc(F)ccc21 (centres unmarked) [compound 422] | > 1 | < 65 | < 0.1 | < 65 | – | – | – | – | – | –
COC(=O)N1CCC(CN2CCC3(CC2)CN(C(C)=O)c2ccc(C)cc23)CC1 [compound 423] | > 1 | < 65 | 0.1 to 1 | < 65 | – | – | – | – | – | –
CC(=O)N1CC2(CCN(C3CCN(C(=O)O[C@@H]4CCOC4)CC3)CC2)c2cc(F)ccc21 [compound 424] | > 1 | < 65 | > 1 | < 65 | – | – | – | – | – | –
CC(=O)N1CC2(CCN(C3CCCC(C(F)(F)F)C3)CC2)c2cc(F)ccc21 (centres unmarked) [compound 425] | > 1 | < 65 | > 1 | < 65 | – | – | – | – | – | –
CCOC(=O)N1CCC(N2CCC3(CC2)CN(C(C)=O)c2ccc(C4=CCCC4)cc23)CC1 [compound 426] | > 1 | < 65 | > 1 | < 65 | – | – | – | – | – | –
CCOC(=O)N1CCC(N2CCC3(CC2)CN(C(=O)OCC)c2ccc(F)cc23)CC1 [compound 427] | > 1 | < 65 | 0.1 to 1 | < 65 | – | – | – | – | – | –
CCOC(=O)N1CCC(N2CCC3(CC2)CN(C(=O)O[C@H]2CCOC2)c2ccc(F)cc23)CC1 [compound 428] | > 1 | < 65 | 0.1 to 1 | < 65 | – | – | – | – | – | –
Fc1ccc2c(c1)C1(CCN(C[C@@H]3C[C@H]4CC[C@H]3O4)CC1)CN2 [compound 429] | > 1 | < 65 | 0.1 to 1 | < 65 | – | – | – | – | – | –
CCOC(=O)N1CCC(N2CCC3(CC2)C[C@@H](NC(C)=O)c2ccccc23)CC1 [compound 430] | > 1 | < 65 | 0.1 to 1 | < 65 | – | – | – | – | – | –
CCOC(=O)N1CCC(N2CCC3(CC2)CN(C(C)=O)c2c(F)ccc(F)c23)CC1 [compound 431] | – | – | – | – | – | – | 25 to 100 | xx (activity was measured to be between 2.0 μM and 5.0 μM) | 25 to 100 | xx (activity was measured to be between 2.0 μM and 5.0 μM)
CC(C)C(=O)N[C@@H]1CC2(CCN(C[C@H]3C[C@H]4CC[C@H]3C4)CC2)c2ccccc21 [compound 432] | – | – | – | – | – | – | < 25 | x (activity was measured to be greater than 5.0 μM) | < 25 | x (activity was measured to be greater than 5.0 μM)
CCOC(=O)N1CCC(N2CCC3(CC2)CN(C(=O)Nc2ccccc2)c2ccccc23)CC1 [compound 433] | – | – | – | – | – | – | 25 to 100 | xxx (activity was measured to be less than 2.0 μM) | > 100 | xxx (activity was measured to be less than 2.0 μM)
CCOC(=O)N1CCC(N2CCC3(CC2)CN(C(C)=O)c2c(-c4ccc(OC)cc4)cccc23)CC1 [compound 434] | – | – | – | – | – | – | 25 to 100 | xxx (activity was measured to be less than 2.0 μM) | 25 to 100 | x (activity was measured to be greater than 5.0 μM)
CN(C)C(=O)N1CC2(CCN(C3CCN(C(=O)c4ccco4)CC3)CC2)c2cc(F)ccc21 [compound 435] | – | – | – | – | – | – | 25 to 100 | xxx (activity was measured to be less than 2.0 μM) | 25 to 100 | xxx (activity was measured to be less than 2.0 μM)

Reference: patent US7786141B2 (Vertex Pharmaceuticals Incorporated, priority 2004, dated 2010)
